Active and inactive are the calls of the source. The rule behind the calls is not given here.
System: Musca domestica
Experiment: Displacement of [3H]EBOB from housefly GABA receptor

SMILES	Activity
CN1C(=O)[C@]2(C[C@H]3C(=O)N[C@@]2(C)c2nc4ccccc4c(=O)n23)c2ccccc21 (racemic)	Active
CC(C)[C@@]12NC(=O)[C@H](C[C@@]13C(=O)Nc1ccccc13)n1c2nc2ccccc2c1=O (racemic)	Active
O=C1N[C@@]2(Cc3ccccc3)c3nc4ccccc4c(=O)n3[C@H]1C[C@@]21C(=O)Nc2ccccc21 (racemic)	Active
O=C1N[C@@]2(Cc3ccccc3)c3nc4ccccc4c(=O)n3[C@H]1C[C@]21C(=O)Nc2ccccc21 (racemic)	Active
C[C@@]12NC(=O)[C@H](C[C@@]13C(=O)N(Cc1ccccc1)c1ccccc13)n1c2nc2ccccc2c1=O (racemic)	Active
C[C@@]12NC(=O)[C@H](C[C@]13C(=O)Nc1ccccc13)n1c2nc2ccc(F)cc2c1=O (racemic)	Active
CN1C(=O)[C@@]2(C[C@H]3C(=O)N(C)[C@@]2(C)c2nc4ccccc4c(=O)n23)c2ccccc21 (racemic)	Active
CN1C(=O)[C@]2(C[C@H]3C(=O)N(C)[C@@]2(C)c2nc4ccccc4c(=O)n23)c2ccccc21 (racemic)	Active
C[C@@]12NC(=O)[C@H](C[C@@]13C(=O)Nc1ccccc13)n1c2nc2ccccc2c1=O (racemic)	Active
CN1C(=O)[C@@H]2C[C@]3(C(=O)N(Cc4ccccc4)c4ccccc43)[C@]1(C)c1nc3ccccc3c(=O)n12 (racemic)	Active
C[C@@]12NC(=O)[C@H](C[C@]13C(=O)Nc1ccccc13)n1c2nc2ccc(Cl)cc2c1=O (racemic)	Active
CN1C(=O)[C@@H]2[C@H]3C(=O)N(c4ccccc4)C(=O)[C@H]3[C@]1(C)c1nc3ccccc3c(=O)n12 (racemic)	Active
CN1C(=O)[C@@]2(C[C@H]3C(=O)N[C@@]2(C)c2nc4ccccc4c(=O)n23)c2ccccc21 (racemic)	Active
C[C@@]12NC(=O)[C@H](C[C@]13C(=O)Nc1ccc(Cl)cc13)n1c2nc2ccc(Cl)cc2c1=O (racemic)	Active
CN1C(=O)[C@@H]2C[C@@]3(C(=O)N(Cc4ccccc4)c4ccccc43)[C@]1(C)c1nc3ccccc3c(=O)n12 (racemic)	Active
C[C@@]12NC(=O)[C@H](C[C@]13C(=O)Nc1ccc(Cl)cc13)n1c2nc2ccccc2c1=O (racemic)	Active
CC(C)C[C@@]12NC(=O)[C@H](C[C@]13C(=O)Nc1ccccc13)n1c2nc2ccccc2c1=O (racemic)	Active
CN1C(=O)[C@@H]2C[C@]3(C(=O)Nc4ccccc43)[C@]1(C)c1nc3ccccc3c(=O)n12 (racemic)	Active
C[C@@]12NC(=O)[C@H](C[C@]13C(=O)N(Cc1ccccc1)c1ccccc13)n1c2nc2ccccc2c1=O (racemic)	Active
C[C@@]12NC(=O)[C@H](C[C@@]13C(=O)Nc1ccc(Cl)cc13)n1c2nc2ccccc2c1=O (racemic)	Active
C[C@@]12NC(=O)[C@H](C[C@]13C(=O)Nc1ccccc13)n1c2nc2cc(Cl)ccc2c1=O (racemic)	Active
C[C@@]12NC(=O)[C@H]([C@H]3C(=O)N(c4ccccc4)C(=O)[C@H]31)n1c2nc2ccccc2c1=O (racemic)	Active
CC(C)C[C@@]12NC(=O)[C@H](C[C@@]13C(=O)Nc1ccccc13)n1c2nc2ccccc2c1=O (racemic)	Active
C[C@@]12NC(=O)[C@H](C[C@@]13C(=O)Nc1ccc(Cl)cc13)n1c2nc2ccc(Cl)cc2c1=O (racemic)	Active
C[C@@]12NC(=O)[C@H](C[C@@]13C(=O)Nc1ccccc13)n1c2nc2ccc(F)cc2c1=O (racemic)	Active
C[C@@]12NC(=O)[C@H](C[C@@]13C(=O)Nc1ccccc13)n1c2nc2ccc(Cl)cc2c1=O (racemic)	Active
CC(C)[C@@]12NC(=O)[C@H](C[C@]13C(=O)Nc1ccccc13)n1c2nc2ccccc2c1=O (racemic)	Active
C[C@@]12NC(=O)[C@H](C[C@]13C(=O)Nc1ccccc13)n1c2nc2ccccc2c1=O (racemic)	Active
C[C@@]12NC(=O)[C@H](C[C@@]13C(=O)Nc1ccccc13)n1c2nc2cc(Cl)ccc2c1=O (racemic)	Active

System: Neuron
Experiment: Inhibition of GABA-induced inward current in Periplaneta americana L neuron at 10 uM for 5 min by whole-cell patch clamp method
Type: functional

SMILES	inhibition at 10 µM
C[C@@]12NC(=O)[C@H](C[C@]13C(=O)Nc1ccccc13)n1c2nc2ccccc2c1=O	90.3%
